Assay results reported in PubChem BioAssay AID328 (DTP/NCI, 2004).
Several values for one entry are separate records, joined by “and”; a condition that tells them apart may be missing. Equal values may be shown once. Inconclusive results and toxic doses are left out.

Test system: BDF1 mice, P388 leukemia ip, median survival T/C
Test: NCI In Vivo Anticancer Drug Screen. Data for tumor model P388 Leukemia (intraperitoneal) in B6D2F1 (BDF1) mice
Conditions: endpoint: median survival time, higher = longer survival
Method in brief: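 Vehicle-dosed animals serve as the reference; survival of compound-dosed, tumour-implanted mice is divided by it.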

[1] = dose: 100.0 mg/kg/injection, schedule: Q01DX009 (ip), vehicle: Klucel (hydroxypropylcellulose) (HPC)
[2] = dose: 100.0 mg/kg/injection, schedule: Q04DX003 (ip), vehicle: Klucel (hydroxypropylcellulose) (HPC)
[3] = dose: 200.0 mg/kg/injection, schedule: Q01DX009 (ip), vehicle: Klucel (hydroxypropylcellulose) (HPC)
[4] = dose: 400.0 mg/kg/injection, schedule: Q01DX009 (ip), vehicle: Klucel (hydroxypropylcellulose) (HPC)
[5] = dose: 50.0 mg/kg/injection, schedule: Q01DX009 (ip), vehicle: Klucel (hydroxypropylcellulose) (HPC)
[6] = dose: 100.0 mg/kg/injection, schedule: Q01DX009 (ip), vehicle: saline with Tween-80
[7] = dose: 200.0 mg/kg/injection, schedule: Q01DX009 (ip), vehicle: saline with Tween-80
[8] = dose: 50.0 mg/kg/injection, schedule: Q01DX009 (ip), vehicle: saline with Tween-80
[9] = dose: 50.0 mg/kg/injection, schedule: Q04DX003 (ip), vehicle: saline with Tween-80
[10] = dose: 100.0 mg/kg/injection, schedule: Q04DX003 (ip), vehicle: saline with Tween-80
[11] = dose: 200.0 mg/kg/injection, schedule: Q04DX003 (ip), vehicle: saline with Tween-80
[12] = dose: 100.0 mg/kg/injection, schedule: Q01DX001 (ip), vehicle: saline
[13] = dose: 200.0 mg/kg/injection, schedule: Q01DX001 (ip), vehicle: saline

In the case of `c1ccc(CC2(Cc3ccccc3)SCCS2)cc1`, the T/C [1] is reported as 105 % of control, the T/C [2] is reported as 95 % of control and the T/C [3] is reported as 105 % of control. The T/C (dose: 200.0 mg/kg/injection, schedule: Q04DX003 (ip), vehicle: Klucel (hydroxypropylcellulose) (HPC)) was 104 % of control, the T/C [4] was 115 % of control and the T/C (dose: 400.0 mg/kg/injection, schedule: Q04DX003 (ip), vehicle: Klucel (hydroxypropylcellulose) (HPC)) was 104 % of control.

With `OCCN1CCN(CCCN2c3ccccc3Oc3ccc(C(F)(F)F)cc32)CC1` the T/C (dose: 15.0 mg/kg/injection, schedule: Q04DX003 (ip), vehicle: saline) was 105 % of control, the T/C (dose: 25.0 mg/kg/injection, schedule: Q01DX009 (ip), vehicle: saline) was 104 % of control and the T/C (dose: 30.0 mg/kg/injection, schedule: Q04DX003 (ip), vehicle: saline) was 115 % of control. For the same compound, the T/C [5] was 150 % of control and the T/C (dose: 120.0 mg/kg/injection, schedule: Q04DX003 (ip), vehicle: saline) was 105 % of control.

With `Cc1cc(C)c2c(=O)[nH][nH]c2n1` the T/C [6] was 96 % of control, the T/C [7] was 100 % of control and the T/C (dose: 400.0 mg/kg/injection, schedule: Q01DX009 (ip), vehicle: saline with Tween-80) was 94 % of control.

For `COc1cccc2c1C(=O)c1c(O)c3c(c(O)c1C2=O)C[C@@](O)(/C(C)=N/NC(=O)c1ccc(N(C)C)cc1)C[C@@H]3OC1CC(N)C(O)C(C)O1` (some centres not stated), the T/C (dose: 0.25 mg/kg/injection, schedule: Q01DX009 (ip), vehicle: water) was 96 % of control, the T/C (dose: 1.0 mg/kg/injection, schedule: Q01DX009 (ip), vehicle: water) was 107 % of control and 110 % of control and the T/C (dose: 2.0 mg/kg/injection, schedule: Q01DX009 (ip), vehicle: water) was 233 % of control and 154 % of control. The T/C (dose: 4.0 mg/kg/injection, schedule: Q01DX009 (ip), vehicle: water) was 179 % of control and the T/C (dose: 8.0 mg/kg/injection, schedule: Q01DX009 (ip), vehicle: water) was 243 % of control.

In the case of `Cc1ccn(/C(N)=N/C(=S)Nc2ccccc2)n1`, the T/C (dose: 37.5 mg/kg/injection, schedule: Q01DX009 (ip), vehicle: saline with Tween-80) is reported as 108 % of control, the T/C (dose: 75.0 mg/kg/injection, schedule: Q01DX009 (ip), vehicle: saline with Tween-80) is reported as 90 % of control and the T/C (dose: 150.0 mg/kg/injection, schedule: Q01DX009 (ip), vehicle: saline with Tween-80) is reported as 114 % of control.

`COc1c2c(c(OC)c3ccccc13)C(=O)c1ccccc1C2=O` was tested, and the T/C (dose: 25.0 mg/kg/injection, schedule: Q01DX005 (ip), vehicle: saline) was 115 % of control, the T/C (dose: 50.0 mg/kg/injection, schedule: Q01DX005 (ip), vehicle: saline) was 87 % of control and the T/C (dose: 100.0 mg/kg/injection, schedule: Q01DX005 (ip), vehicle: saline) was 95 % of control. For the same compound, the T/C (dose: 200.0 mg/kg/injection, schedule: Q01DX005 (ip), vehicle: saline) was 93 % of control.

In the case of `CN(C)c1ccc(Sc2ccc3nc(N)nc(N)c3c2)cc1`, the T/C [8] is reported as 112 % of control, the T/C [6] is reported as 103 % of control and the T/C [7] is reported as 174 % of control.

With `CCOC(=O)CCC(NC(=O)c1ccc(N(C=O)CCOC=O)cc1)C(=O)OCC` (configuration not stated) the T/C [9] was 105 % of control, the T/C [10] was 105 % of control and the T/C [11] was 111 % of control.

In the case of `CCn1nnc2c(N(C)C)nc(N)nc21`, the T/C (dose: 25.0 mg/kg/injection, schedule: Q01DX009 (ip), vehicle: Klucel (hydroxypropylcellulose) (HPC)) is reported as 92 % of control, the T/C [5] is reported as 92 % of control and the T/C (dose: 50.0 mg/kg/injection, schedule: Q04DX003 (ip), vehicle: Klucel (hydroxypropylcellulose) (HPC)) is reported as 100 % of control. The T/C [1] was 92 % of control and the T/C [2] was 104 % of control.

`CNC(=S)N/N=C/C(C)=N/NC(=S)NC` was tested, and the T/C (dose: 1.6 mg/kg/injection, schedule: Q01DX009 (ip), vehicle: Klucel (hydroxypropylcellulose) (HPC)) was 113 % of control, the T/C (dose: 3.12 mg/kg/injection, schedule: Q01DX009 (ip), vehicle: Klucel (hydroxypropylcellulose) (HPC)) was 104 % of control and the T/C (dose: 12.5 mg/kg/injection, schedule: Q01DX009 (ip), vehicle: Klucel (hydroxypropylcellulose) (HPC)) was 104 % of control. For the same compound, the T/C [5] was 100 % of control, the T/C [3] was 100 % of control and the T/C (dose: 125.0 micrograms/kg/injection, schedule: Q01DX009 (ip), vehicle: saline) was 109 % of control. The T/C (dose: 250.0 micrograms/kg/injection, schedule: Q01DX009 (ip), vehicle: saline) was 109 % of control, the T/C (dose: 500.0 micrograms/kg/injection, schedule: Q01DX009 (ip), vehicle: saline) was 109 % of control and the T/C (dose: 1000.0 micrograms/kg/injection, schedule: Q01DX009 (ip), vehicle: saline) was 109 % of control.

`O=C(O)C(CCO)C(=O)C(F)(F)F` (configuration not stated) was tested, and the T/C (dose: 25.0 mg/kg/injection, schedule: Q01DX009 (ip), vehicle: other) was 98 % of control, the T/C (dose: 50.0 mg/kg/injection, schedule: Q01DX009 (ip), vehicle: other) was 98 % of control and the T/C (dose: 100.0 mg/kg/injection, schedule: Q01DX009 (ip), vehicle: other) was 91 % of control.

In the case of `CCOC(=O)N(C)C1CCC1NC` (configuration not stated), the T/C (dose: 50.0 mg/kg/injection, schedule: Q01DX001 (ip), vehicle: saline) is reported as 100 % of control, the T/C [12] is reported as 95 % of control and the T/C [13] is reported as 95 % of control.

`CC(=NCc1ccccc1)C(C)(O)c1ccccc1` (configuration not stated) was tested, and the T/C (dose: 100.0 mg/kg/injection, schedule: Q01DX001 (ip), vehicle: Klucel (hydroxypropylcellulose) (HPC)) was 100 % of control, the T/C [12] was 109 % of control and the T/C [1] was 110 % of control. For the same compound, the T/C (dose: 200.0 mg/kg/injection, schedule: Q01DX001 (ip), vehicle: Klucel (hydroxypropylcellulose) (HPC)) was 104 % of control, the T/C [13] was 100 % of control and the T/C [3] was 100 % of control. The T/C (dose: 400.0 mg/kg/injection, schedule: Q01DX001 (ip), vehicle: Klucel (hydroxypropylcellulose) (HPC)) was 100 % of control, the T/C (dose: 400.0 mg/kg/injection, schedule: Q01DX001 (ip), vehicle: saline) was 118 % of control and the T/C [4] was 105 % of control.

For `CC1=Nc2ccccc2C(=O)N(C)N1`, the T/C [8] was 100 % of control, the T/C [6] was 104 % of control and the T/C [7] was 97 % of control.

In the case of `COc1ccccc1C(=O)NN`, the T/C (dose: 6.25 mg/kg/injection, schedule: Q04DX003 (ip), vehicle: saline) is reported as 100 % of control, the T/C (dose: 12.5 mg/kg/injection, schedule: Q04DX003 (ip), vehicle: saline) is reported as 110 % of control and the T/C (dose: 25.0 mg/kg/injection, schedule: Q04DX003 (ip), vehicle: saline) is reported as 105 % of control.

For `O=C(OCCC(OC(=O)c1ccccc1)C(COC(=O)c1ccccc1)OC(=O)c1ccccc1)c1ccccc1` (configuration not stated), the T/C [1] was 87 % of control and the T/C [3] was 95 % of control.

For `O=C(O)CC1(c2cccc3ccccc23)OC(=O)c2ccccc21` (configuration not stated), the T/C (dose: 100.0 mg/kg/injection, schedule: Q01DX001 (ip), vehicle: saline with Tween-80) was 112 % of control, the T/C (dose: 200.0 mg/kg/injection, schedule: Q01DX001 (ip), vehicle: saline with Tween-80) was 88 % of control and the T/C (dose: 400.0 mg/kg/injection, schedule: Q01DX001 (ip), vehicle: saline with Tween-80) was 97 % of control.

`C=CC(C)(C(=O)O)C(C)C` (configuration not stated) was tested, and the T/C [8] was 101 % of control, the T/C [6] was 100 % of control and the T/C [7] was 97 % of control.

In the case of `Cc1cc(NC(=O)c2ccccc2)c(Cl)cc1N`, the T/C [9] is reported as 95 % of control, the T/C [10] is reported as 95 % of control and the T/C [11] is reported as 95 % of control.

For `CCOc1ccc(N2CC(=O)N3CCCC(c4ccccc4)N3C(=O)C2)cc1` (configuration not stated), the T/C (dose: 50.0 mg/kg/injection, schedule: Q01DX005 (ip), vehicle: saline with Tween-80) was 108 % of control, the T/C (dose: 100.0 mg/kg/injection, schedule: Q01DX005 (ip), vehicle: saline with Tween-80) was 94 % of control and the T/C (dose: 200.0 mg/kg/injection, schedule: Q01DX005 (ip), vehicle: saline with Tween-80) was 94 % of control.

In the case of `C[N+]1(Cc2c[nH]c3ccsc23)CCCCC1`, the T/C (dose: 3.0 mg/kg/injection, schedule: Q01DX009 (ip), vehicle: saline with Tween-80) is reported as 87 % of control, the T/C (dose: 3.0 mg/kg/injection, schedule: Q04DX003 (ip), vehicle: saline with Tween-80) is reported as 104 % of control and the T/C (dose: 6.0 mg/kg/injection, schedule: Q01DX009 (ip), vehicle: saline with Tween-80) is reported as 91 % of control. The T/C (dose: 6.0 mg/kg/injection, schedule: Q04DX003 (ip), vehicle: saline with Tween-80) was 104 % of control, the T/C (dose: 12.0 mg/kg/injection, schedule: Q01DX009 (ip), vehicle: saline with Tween-80) was 100 % of control and the T/C (dose: 12.0 mg/kg/injection, schedule: Q04DX003 (ip), vehicle: saline with Tween-80) was 100 % of control.
